We go through 24 compounds from patent publication US20090018134A1, “Compounds - 945” (AstraZeneca AB, priority 2007, published 2009).

T1 sequence (P42345 1362-2549): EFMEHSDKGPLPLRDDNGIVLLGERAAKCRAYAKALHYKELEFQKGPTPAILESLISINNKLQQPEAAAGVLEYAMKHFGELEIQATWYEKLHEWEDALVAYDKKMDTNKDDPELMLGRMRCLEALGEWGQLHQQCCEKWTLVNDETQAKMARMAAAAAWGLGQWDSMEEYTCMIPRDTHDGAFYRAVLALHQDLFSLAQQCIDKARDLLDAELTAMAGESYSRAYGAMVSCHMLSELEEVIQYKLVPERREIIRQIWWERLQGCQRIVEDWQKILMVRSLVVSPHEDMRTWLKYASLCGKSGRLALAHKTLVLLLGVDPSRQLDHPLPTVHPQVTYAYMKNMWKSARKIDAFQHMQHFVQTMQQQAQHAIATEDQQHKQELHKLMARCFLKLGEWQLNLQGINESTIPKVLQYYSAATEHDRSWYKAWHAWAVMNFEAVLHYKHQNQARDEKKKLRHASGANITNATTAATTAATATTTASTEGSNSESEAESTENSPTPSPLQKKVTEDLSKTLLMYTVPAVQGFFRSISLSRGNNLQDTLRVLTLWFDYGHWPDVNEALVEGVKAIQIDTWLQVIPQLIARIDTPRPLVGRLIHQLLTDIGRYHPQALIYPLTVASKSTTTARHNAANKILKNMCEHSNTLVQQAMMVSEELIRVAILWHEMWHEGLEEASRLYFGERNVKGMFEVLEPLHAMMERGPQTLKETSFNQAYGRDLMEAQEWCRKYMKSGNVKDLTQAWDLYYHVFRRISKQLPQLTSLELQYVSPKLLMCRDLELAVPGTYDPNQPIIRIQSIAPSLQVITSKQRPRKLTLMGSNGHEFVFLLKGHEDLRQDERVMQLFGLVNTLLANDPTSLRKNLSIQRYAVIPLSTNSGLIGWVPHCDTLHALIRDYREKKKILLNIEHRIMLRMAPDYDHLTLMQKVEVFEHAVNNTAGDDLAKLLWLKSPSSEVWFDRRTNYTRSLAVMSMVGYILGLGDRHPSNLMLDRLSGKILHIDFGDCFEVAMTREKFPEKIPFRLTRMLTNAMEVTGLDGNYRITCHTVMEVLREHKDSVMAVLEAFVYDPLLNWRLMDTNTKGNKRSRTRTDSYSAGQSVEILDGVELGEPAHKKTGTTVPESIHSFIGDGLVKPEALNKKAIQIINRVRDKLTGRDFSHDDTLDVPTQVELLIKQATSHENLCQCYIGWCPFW

The first test concerns the target T1, mTOR (Homo sapiens, UniProt P42345).
T1 construct: FLAG; made in house
Description: In Vitro mTOR Kinase Assay (Echo), Test (a)(ii). Type of test: biochemical. The following applies: read-out: mTOR Kinase Assay (Echo). The text has this:
(a)(ii) In Vitro mTOR Kinase Assay (Echo)
The assay used AlphaScreen technology (Gray et al., Analytical Biochemistry, 2003, 313: 234-245) to determine the ability of test compounds to inhibit phosphorylation by recombinant mTOR.
A C-terminal truncation of mTOR encompassing amino acid residues 1362 to 2549 of mTOR (EMBL Accession No. L34075) was stably expressed as a FLAG-tagged fusion in HEK293 cells as described by Vilella-Bach et al., […], 1999, 274, 4266-4272. The HEK293 FLAG-tagged mTOR (1362-2549) stable cell line was routinely maintained at 37° C. with 5% CO2 up to a confluency of 70-90% in Dulbecco's modified Eagle's growth medium (DMEM; Invitrogen Limited, Paisley, UK Catalogue No. 41966-029) containing 10% heat-inactivated foetal calf serum (FCS; Sigma, Poole, Dorset, UK, Catalogue No. F0392), 1% L-glutamine (Gibco, Catalogue No. 25030-024) and 2 mg/ml Geneticin (G418 sulfate; Invitrogen Limited, UK Catalogue No. 1013 1-027). Following expression in the mammalian HEK293 cell line, expressed protein was purified using the FLAG epitope tag using standard purification techniques.
Aliquots (120 nl […]) of each compound dilution were acoustically dispensed placed using a Labcyte Echo 550 into a well of a Greiner 384-well low volume (LV) white polystyrene plate (Greiner Bio-one).
These assay solutions were incubated for 2 hours at room temperature.
Each reaction was stopped by the addition of […] of a mixture of EDTA (50 mM), bovine serum albumin (BSA; 0.5 mg/mL) and Tris-HCl pH 7.4 buffer (50 mM) containing p70 S6 Kinase (T389) 1A5 Monoclonal Antibody (Cell Signalling Technology, Catalogue No. 9206B) and AlphaScreen Streptavidin donor and Protein A acceptor beads (200 ng; Perkin Elmer, Catalogue No. 6760002B and 6760137R respectively) were added and the assay plates were left overnight at room temperature in the dark. The resultant signals arising from laser light excitation at 680 nm were read using a Packard Envision instrument.
The phosphorylated biotinylated peptide that is associated with AlphaScreen Streptavidin donor beads forms a complex with the p70 S6 Kinase (T389) 1A5 Monoclonal Antibody that is associated with Alphascreen Protein A acceptor beads. Upon laser light excitation at 680 nm, the donor bead: acceptor bead complex produces a signal that can be measured. Accordingly, the presence of mTOR kinase activity results in an assay signal. In the presence of an mTOR kinase inhibitor, signal strength is reduced.
mTOR enzyme inhibition for a given test compound was expressed as an IC50 value.
With `Cc1cc(NC(=O)Nc2ccc(-c3nc(N4CCOC[C@@H]4C)cc(C4(S(C)(=O)=O)CC4)n3)cc2)no1` [Example 2u, 1-[4-[4-[(3S)-3-methylmorpholin-4-yl]-6-(1-methylsulfonylcyclopropyl)pyrimidin-2-yl]phenyl]-3-(5-methyl-1,2-oxazol-3-yl)urea], the IC50 came out at 1.18 nM.

Regarding `C[C@H]1COCCN1c1cc(C2(S(C)(=O)=O)CC2)nc(-c2ccc(NC(=O)NC3COC3)cc2)n1` [Example 2ac, 1-[4-[4-[(3S)-3-methylmorpholin-4-yl]-6-(1-methylsulfonylcyclopropyl)pyrimidin-2-yl]phenyl]-3-(oxetan-3-yl)urea], the IC50 came out at 6.41 nM.

With `C[C@H]1COCCN1c1cc(C2(S(=O)(=O)C3CC3)CC2)nc(-c2ccc(NC(=O)Nc3ccccn3)cc2)n1` [Example 3b, 1-[4-[4-(1-cyclopropylsulfonylcyclopropyl)-6-[(3S)-3-methylmorpholin-4-yl]pyrimidin-2-yl]phenyl]-3-pyridin-2-yl-urea], the IC50 came out at 3.85 nM.

On to `C[C@H]1COCCN1c1cc(C2(S(C)(=O)=O)CCCC2)nc(-c2ccc(NC(=O)NCc3ncc[nH]3)cc2)n1` [Example 4n, 3-(1H-imidazol-2-ylmethyl)-1-[4-[4-[(3S)-3-methylmorpholin-4-yl]-6-(1-methylsulfonylcyclopentyl)pyrimidin-2-yl]phenyl]urea], for which the IC50 worked out at 39.2 nM.

Consider `CCCNC(=O)Nc1ccc(-c2nc(N3CCOC[C@@H]3C)cc(C3(S(=O)(=O)CC)CC3)n2)cc1` [Example 11h, 3-[4-[4-(1-ethylsulfonylcyclopropyl)-6-[(3S)-3-methylmorpholin-4-yl]pyrimidin-2-yl]phenyl]-1-propyl-urea], for which the IC50 was found to be 9.13 nM.

The same test, now with this note: table of enzyme assay Test (a)(ii); read-out: Test (a)(ii) IC50.
As to `CNC(=O)Nc1ccc(-c2nc(N3CCOCC3)cc(C3(S(=O)(=O)CCO)CC3)n2)cc1` [Example 47a, 1-[4-[4-[1-(2-hydroxyethylsulfonyl)cyclopropyl]-6-morpholin-4-ylpyrimidin-2-yl]phenyl]-3-methylurea], the IC50 is 5.4 nM.

Turning to `C[C@H]1COCCN1c1cc(C2(S(=O)(=O)C3CC3)CCNCC2)nc(-c2ccc(NC(=O)NCCO)cc2)n1` [Example 21b, 1-[4-[4-(4-cyclopropylsulfonylpiperidin-4-yl)-6-[(3S)-3-methylmorpholin-4-yl]pyrimidin-2-yl]phenyl]-3-(2-hydroxyethyl)urea], the IC50 amounted to 13.3 nM.

On to `C[C@H]1COC[C@H](C)N1c1cc(C2(S(C)(=O)=O)CC2)nc(-c2ccc(NC(=O)NC3CC3)cc2)n1` [Example 91, 3-Cyclopropyl-1-[4-[4-[(3S,5S)-3,5-dimethylmorpholin-4-yl]-6-(1-methylsulfonylyclopropyl)pyrimidin-2-yl]phenyl]urea], for which the IC50 amounted to 4.98 nM.

In the case of `C[C@H]1COCCN1c1cc(C2(S(C)(=O)=O)CCCC2)nc(-c2cnc(NC(=O)NCCO)nc2)n1` [Example 14u, 3-(2-hydroxyethyl)-1-[5-[4-[(3S)-3-methylmorpholin-4-yl]-6-(1-methylsulfonylcyclopentyl)pyri-midin-2-yl]pyrimidin-2-yl]urea], the IC50 was determined as 123 nM.

Consider `CNC(=O)Nc1ccc(-c2nc(N3CCOC[C@@H]3C)cc(C3(S(=O)(=O)CCCO)CCC3)n2)cc1` [Example 43a, 1-[4-[4-[1-(3-hydroxypropylsulfonyl)cyclobu-tyl]-6-[(3S)-3-methylmorpholin-4-yl]pyrimidin-2-yl]phenyl]-3-methylurea], for which the IC50 was determined as 4.79 nM.

On to `C[C@H]1COCCN1c1cc(C2(S(=O)(=O)C(C)(C)C)CC2)nc(-c2ccc(NC(=O)NCCCO)cc2)n1` [Example 18l, 1-[4-[4-(1-tert-butylsulfonylcyclopropyl)-6-[(3S)-3-methylmorpholin-4-yl]pyrimidin-2-yl]phenyl]-3-(3-hydroxypropyl)urea], for which the IC50 was determined as 10.2 nM.

On to `C[C@H]1COCCN1c1cc(C2(S(=O)(=O)c3ccc(C#N)cc3)CC2)nc(-c2ccc(NC(=O)Nc3cnn(C)c3)cc2)n1` [Example 77f, 1-[4-[4-[1-(4-cyanophenyl)sulfonylcyclopropyl]-6-[(3S)-3-methylmorpholin-4-yl]pyrimidin-2-yl]phenyl]-3-(1-methylpyrazol-4-yl)urea], for which the IC50 was 9.19 nM.

As for `CCCNC(=O)Nc1ccc(-c2nc(N3CCOC[C@@H]3C)cc(C3(S(=O)(=O)c4ccc(Cl)cc4)CC3)n2)cc1` [Example 27i, 3-[4-[4-[1-(4-chlorophenyl)sulfonylcyclopropyl]-6-[(3S)-3-methylmorpholin-4-yl]pyrimidin-2-yl]phenyl]-1-propylurea], the IC50 was found to be 3.02 nM.

Regarding `C[C@H]1COCCN1c1cc(C2(S(=O)(=O)C3CCOCC3)CC2)nc(-c2ccc(NC(=O)Nc3cnn(C)c3)cc2)n1` [Example 94e, 1-[4-[4-[(3S)-3-methylmorpholin-4-yl]-6-[1-(oxan-4-ylsulfonyl)cyclopropyl]pyrimidin-2-yl]phenyl]-3-(1-methylpyrazol-4-yl)urea], the IC50 is 13.5 nM.

In the case of `C[C@H]1COCCN1c1cc(C2(S(=O)(=O)CCCO)CCC2)nc(-c2ccc(NC(=O)NC3CC3)cc2)n1` [Example 43, 3-Cyclopropyl-1-[4-[4-[1-(3-hydroxypropylsulfonyl)cyclobutyl]-6-[(3S)-3-methylmorpholin-4-yl]pyrimidin-2-yl]phenyl]urea], the IC50 came to 5.39 nM.

With `C[C@H]1COCCN1c1cc(C2(S(C)(=O)=O)CC2)nc(-c2ccc(NC(=S)NCCC#N)cc2)n1` [Example 41, 3-(2-Cyanoethyl)-1-[4-[4-[(3S)-3-methylmorpholin-4-yl]-6-(1-methylsulfonylcyclopropyl)pyrimidin-2-yl]phenyl]thiourea], the IC50 worked out at 30.8 nM.

As for `CNC(=O)Nc1ccc(-c2nc(N3CCOCC3)cc(C3(S(=O)(=O)C4CC4)CC3)n2)cc1` [Example 13a, 1-[4-[4-(1-cyclopropylsulfonylcyclopropyl)-6-morpholin-4-ylpyrimidin-2-yl]phenyl]-3-methylurea], the IC50 came out at 3.41 nM.

With `O=C(NCCCO)Nc1ccc(-c2nc(N3CCOCC3)cc(C3(S(=O)(=O)C4CC4)CCCC3)n2)cc1` [Example 13o, 1-[4-[4-(1-cyclopropylsulfonylcyclopentyl)-6-morpholin-4-ylpyrimidin-2-yl]phenyl]-3-(3-hydroxypropyl)urea], the IC50 stood at 28.7 nM.

For `C[C@H]1COCCN1c1cc(C2(S(C)(=O)=O)CC2)nc(-c2ccc(NC(=O)Nc3nccs3)cc2)n1` [Example 36ay, 1-[4-[4-[(3S)-3-methylmorpholin-4-yl]-6-(1-methylsulfonylcyclopropyl)pyri-midin-2-yl]phenyl]-3-(1,3-thiazol-2-yl)urea], the IC50 amounted to 1.17 nM.

Regarding `CCNC(=O)Nc1ccc(-c2nc(N3CCOCC3)cc(C3(S(=O)(=O)c4ccc(F)cc4)CC3)n2)cc1` [Example 36ao, 1-ethyl-3-[4-[4-[1-(4-fluorophenyl)sulfonylcyclopropyl]-6-morpholin-4-ylpyrimidin-2-yl]phenyl]urea], the IC50 was 14 nM.

With `CNC(=O)Nc1ccc(-c2nc(N3CCOC[C@@H]3C)cc(C3(S(=O)(=O)CCO)CC3)n2)cc1` [Example 16, 1-[4-[4-[1-(2-Hydroxyethylsulfonyl)cyclopropyl]-6-[(3S)-3-methylmorpholin-4-yl]pyrimidin-2-yl]phenyl]-3-methylurea], the IC50 was 1.42 nM.

Regarding `Cc1csc(S(=O)(=O)C2(c3cc(N4CCOC[C@@H]4C)nc(-c4ccc(NC(=O)Nc5ccccn5)cc4)n3)CC2)n1` [Example 25b, 1-[4-[4-[(3S)-3-methylmoprholin-4-yl]-6-[1-[(4-methyl-1,3-thiazol-2-yl)sulfonyl]cyclopropyl]pyrimidin-2-yl]phenyl]-3-pyridin-2-ylurea], the IC50 stood at 0.817 nM.

Consider `C[C@H]1COCCN1c1cc(C2(S(=O)(=O)CCO)CC2)nc(-c2ccc(NC(=O)NCCO)cc2)n1` [Example 16b, 3-(2-hydroxyethyl)-1-[4-[4-[1-(2-hydroxyethylsulfonyl)cyclopropyl]-6-[(3S)-3-methylmorpholin-4-yl]pyrimidin-2-yl]phenyl]urea], for which the IC50 stood at 5.77 nM.

Take `CNC(=S)Nc1ccc(-c2nc(N3CCOC[C@@H]3C)cc(C3(S(=O)(=O)c4nc(C)cs4)CC3)n2)cc1` [Example 37p, 3-methyl-1-[4-[4-[(3S)-3-methylmorpholin-4-yl]-6-[1-[(4-methyl-1,3-thiazol-2-yl)sulfonyl]cyclopropyl]pyri-midin-2-yl]phenyl]thiourea]: the IC50 came to 5.34 nM.
